According to patent publication US8324166B2, “Neuroprotection using NAP-like and SAL-like peptide mimetics” (Ramot at Tel-Aviv University, Ltd., priority 2007, dated 2012):
Where “and” joins values, the source holds several entries; their conditions need not be identical. Identical values can stand only once. Entries after “also recorded” stand apart in the source; their conditions may differ.

Legend:
[1] = tested on: neurons in mixed neuroglial cultures intoxicated with beta-amyloid 1-42; assay: MAP2 assay: neuronal survival in mixed neuroglial cultures following beta-amyloid intoxication; assay type: cell-based, rat
Procedure: Newborn rats were used to prepare cerebral cortical astrocytes cell cultures as described above. After suspending the cells in D1, they were centrifuged at 100 g for 5 minutes and the supernatant discarded. The cell pellet was resuspended in solution D2 containing 5% heat inactivated horse serum (Biological Industries, Beit Haemek, Israel), 0.1% gentamycin, 0.1% penicillin-streptomycin-nystatin, 1% N3 (defined medium components essential for neuronal development in culture, (Romijn HJ, Brain Res., 254:583-9 (1981)]), 15 μg/ml 5′-fluoro-2-deoxyuridine (FUDR, Sigma, Rehovot, Israel), and 3 μg/ml uridine (Sigma, Rehovot, Israel) in DMEM. Cells were counted in a hemocytometer, diluted in D2 and 17,000 cells/well/96 well plate were seeded on 8-day-old astrocytes prepared as described above. The medium was changed the next day to D2 without FUDR and uridine. Cells were allowed to grow for one week at 37° C. 10% CO2 before experiments were performed.
Neuronal survival in neuroglial cultures following beta-amyloid intoxication was assayed using the neuron specific antibody, MAP2. […] The cells were incubated for 5 days in 10% CO2 at 37°C.
5 days after the addition of beta-amyloid and the peptide, the cells were fixed by removing the media from each well and the addition of cold methanol. The cells were left in the refrigerator overnight. The cells were immunostained with anti-MAP2 as previously described (Brooke S M et al., Neurosci. Lett., 267:21-4(1999)): the methanol was removed and the cells were washed 4 times with phosphate buffered saline (PBS). Blocking for non-specific antibody binding was performed by incubating the cells in 5% non-fat milk in PBS overnight at 4° C. The blocking solution was then removed and anti-MAP2(1:1000; Sigma, Rehovot, Israel) was added to each well. The cells were incubated for 30 minutes at room temperature, followed by 4 washes with PBS. Biotinylated anti-mouse IgG (1:200, Vector Laboratories, Burlingame, Calif., USA) was then added to each well, and the cells were incubated for 30 minutes at room temperature followed by 4 washes with PBS. The cells were incubated at room temperature for 30 minutes with the ABC reagent (Vector Laboratories, Burlingame, Calif., USA) prepared according to the manufacturer's protocol and then washed 4 times with PBS. ABTS reagent, prepared according to the manufacturer's protocol (Vector Laboratories, Burlingame, Calif., USA) was then added to each well and the cells were incubated for 20 minutes in the dark at room temperature. The plates were read in an ELISA plate reader at 405nm. As blanks, wells containing untreated cells and no primary antibody were used.

[2] = target: VQIVYK (peptide derived from third microtubule binding repeat of tau) (Homo sapiens, UniProt P10636); assay: In vitro VQIVYK (tau-like) aggregation assay, Thioflavin S; assay type: biochemical; conditions: peptides 10^−17 M -10^−9 M; 100 μM VQIVYK, polyglutamate 250 μM, MOPS pH 6.5, 7 days; compared with NAP
Procedure: VQIVYK aggregation: Tau is a highly soluble protein. The unfolded protein lacks a defined 3D structure. Its main role is stabilization of microtubules in neuronal axons. Tau contains three or four microtubule binding repeats. ^306VQIVYK^311 is a peptide derived from the beginning of the third microtubule binding repeat of tau, which is present in all tau variants.
In vitro aggregation assay was performed in the presence of polyglutamic acid (or heparin), VQIVYK aggregates were further detected by Thioflavin S (excitation 485 nm and emission 535) with emission intensity greatly increasing.
First, different concentrations of polyglutamic acid (0,100 μM, 250 μM, 400 μM) VQIVYK and either […] (NH4Ac) 50 mM pH 6.5 or MOPS 20 mM pH 6.5 and Thioflavin S 5 μM were mixed together and incubated at room temperature. The extent of aggregation was read at excitation 485 nm and emission 535 nm using the infinite 200 system with the Magellan program.
In order to avoid reading self peptide aggregation as VQIVYK aggregation, for each peptide concentration, the fluorescence of the peptide solution without VQIVYK was subtracted from the fluorescence of each peptide concentration containing VQIVYK.

ADNP = assay: Nuclear ADNP level in cerebral cortex by immunoblotting; assay type: in vivo, mouse; conditions: NAT vs vehicle treated TAU-Tg, p=0.0028, listed as NAT
Procedure: The experiment included three groups: Tau-Tg female mice, 10-month-old, treated by intranasal administration of NAT 2 μg/5 μl/mouse/day (n=5) or vehicle (SW/mouse/day) (n=6), and as control, non-Tg female littermates treated by vehicle (SW/mouse/day) (n=7).
Mouse brain tissue was rapidly dissected and quickly separated into four different brain sections: cortex, hippocampus, cerebellum and rest of the brain. Brains were kept frozen at −80° C. for further biochemical analysis. Total levels of nuclear ADNP were analyzed by immunoblotting. Cerebral cortex samples (˜50 mg each) were homogenized and cytoplasmic and nucleus proteins were separated using lysis buffer (20 mM TRIS HCl pH […], 0.1 mM EDTA, 1.5 mM MgCl2, 0.2% NP-40) and extraction buffer (10 mM TRIS HCl pH 7.7, 0.1 mM EDTA, 1.5 mM MgCl2, 20% Glycerol, 1.61 gr NaCl). Protein amount was estimated and corrected by using the Bradford assay and then separated by electrophoresis on 12% polyacrylamide gels containing SDS (Shiryaev et al., (2009) Neurobiol Dis, 34, 381-388). Western blot analyses were performed by applying brain protein samples onto two gels. Each gel had sample representation from each one of the three groups. […] Protein bands on hyperfilm were quantified using photochromatography analysis. The ADNP amount in each band was calculated as its percentage from the total amount of all bands. […]

NATLSIHQ (synthetic NAP-like peptide) was tested, and the “effective concentrations on neuronal survival: Neurons (25 μM beta-amyloid)” value ([1]; MAP2 assay, 5 days, tested 10^−19M to 10^−5M, significance vs negative control in cell) was 10^−19 M and 10^−15 M and 10^−17 M and 10^−13 M, the “activity in neuroprotection assay” value ([1]; neuroglial cells, beta-amyloid) was “active” and the “efficacy compared between peptides” value ([1]; survival of neuroglial cells) was “greater than that of STPTAIPQ”. For the same sequence, the “inhibition of VQIVYK (tau) aggregation” value [2] was “superior to NAP; also recorded: superior effect than NAPVSIPQ” and the “amount of nuclear ADNP protein” value (ADNP) was “difference between the NAT and vehicle treated TAU-Tg groups; also recorded: statistically significant increase”.
